Test results: patent US20160215348A1, “GENE EXPRESSION BIOMARKERS AND THEIR USE FOR DIAGNOSTIC AND PROGNOSTIC APPLICATION IN PATIENTS POTENTIALLY IN NEED OF HDAC INHIBITOR TREATMENT” (4SC AG, priority 2013, published 2016)

Legend:
Assay type in all cases: in vivo, human
[1] = Dose escalation 100-800 mg in cancer patients, dose-limiting toxicity; details: highest dose group (800 mg); one patient within the first 3 patients
Method: HDAC enzyme activity, H4 Histone acetylation and gene expression of a group of genes were measured in the dose groups 100 mg, 200 mg, 400 mg, 600 mg and 800 mg. Each group consisted of 3 patients with different types of tumors. The highest dose group consisted of 6 patients due to a dose-limiting toxicity [DLT] […] The treatment cycles were as detailed for the SAPHIRE, SHELTER and SHORE clinical trials described herein below.

18S = test: qPCR relative expression (vs cycle 1, day 1, hour 0) in patients' whole blood
Method: (§1) 2.5 ml whole blood from patients was collected in PAXgene™ tubes (BD Biosciences) that contain chemicals to lyse the erythrocytes, stabilize RNA from degradation by RNases and minimize ex vivo changes in gene expression. The samples were incubated at 20° C. to 25° C. for 2 hours and then frozen at −20° C. until purification of total RNA.
(§2) Total RNA was isolated from the whole blood samples stabilized in PAXgene™ buffer using a spin column based technique suitable for whole blood samples (like PAXgene™ Blood miRNA Kit or PAXgene™ Blood RNA Kit from Qiagen) according to the manufacturer's instructions. The purification began with a centrifugation step to pellet nucleic acids in the (PAXgene™ Blood RNA) tube. The resuspended pellet was incubated in buffers, optimized for maintenance of RNA stability together with proteinase K to bring about protein digestion. An additional centrifugation through the PAXgene™ Shredder spin column was carried out to homogenize the cell lysate and remove residual cell debris, and the supernatant of the flow-through fraction was transferred to a fresh microcentrifuge tube. Ethanol was added to adjust binding conditions, and the lysate was applied to a PAXgene™ RNA spin column. During a brief centrifugation, RNA was selectively bound to the PAXgene™ silica membrane as contaminants pass through. Remaining contaminants were removed in several efficient wash steps. Between the first and second wash steps, the membrane was treated with DNase I, as described herein below in 1.3 to remove trace amounts of bound DNA. After the wash steps, RNA was eluted in nuclease free water and heat-denatured.
(§3) The High-Capacity cDNA Reverse Transcription Kit (Applied Biosystems) was used for reverse transcription of total RNA into single stranded cDNA with the aid of random hexamer primers according to the manufacturer's instructions. Briefly, for the reaction mix total RNA was mixed with random primers in excess, 4 mM dNTP Mix, 2.5 U/reaction, reverse transcriptase and nuclease free water. The reverse transcription took place in a thermal cycler under the following conditions: 25° C. for 10 min, 37° C. for 120 min, 85° C. for 5 min, followed by 4° C. for cooling down the reaction. The reverse transcription can be done in principle as well with other reverse transcriptases, primers and temperature protocols. Whenever possible, 250 ng total RNA were reverse transcribed if not available, lower amounts were used.
(§4) Custom TaqMan® Arrays (Applied Biosystems) in Format 16 were designed for the gene expression analysis of biomarkers of the present invention and housekeeping genes as outlined in table 4. These arrays allow for qPCR analysis of 8 samples per card. Of course, all reactions can be done as well by conventional qPCR analysis with specific primers.
(§5) The reaction mix was transferred into the reaction chambers by centrifuging twice for 1 minute each at 330 g and 4° C. After sealing, the microfluidic cards were run on an AB7900HT instrument (Applied Biosystems). The software SDS 2.4 (Applied Biosystems) was employed for instrument control, data acquisition and raw data analysis. The plates were run in Relative Quantification (ΔΔCt) mode, and the following temperature profile was used:
(§6) This analysis was carried out for each patient separately. The first sample (cycle 1, day 1, hour 0) was used as the reference sample. The ‘exprs’ value indicates relative expression levels (fold change values) for individual samples.
(§7) Table 5 contains the median expression level values for treatment day 5 (cycle 1, day 5, hours 0, 2, and 5) at a daily dose of 600 mg or 800 mg Resminostat mesylate salt is given below.

CCDC43 = test: as above
Method: as §1, §2, §3, §4, §5, §6, §7

DPP3 = test: as above
Method: as §1, §2, §3, §4, §5, §6, §7

GAPDH = test: as above
Method: as §1, §2, §3, §4, §5, §6, §7

HIST2H4A; HIST2H4B = test: as above
Method: as §1, §2, §3, §4, §5, §6, §7

KDELC2 = test: as above
Method: as §1, §2, §3, §4, §5, §6, §7

MICALL1 = test: as above
Method: as §1, §2, §3, §4, §5, §6, §7

TBP = test: as above
Method: as §1, §2, §3, §4, §5, §6, §7

ZFP64 = test: as above
Method: as §1, §2, §3, §4, §5, §6, §7

[2] = cycle 1, day 5, hour 0, 600 mg dose
[3] = cycle 1, day 5, hour 0, 800 mg dose
[4] = cycle 1, day 5, hour 2, 600 mg dose
[5] = cycle 1, day 5, hour 2, 800 mg dose
[6] = cycle 1, day 5, hour 5, 600 mg dose
[7] = cycle 1, day 5, hour 5, 800 mg dose

CN(C)Cc1ccc(S(=O)(=O)n2ccc(/C=C/C(=O)NO)c2)cc1 [resminostat, (E)-3-(1-(4-((dimethylamino)methyl)phenylsulfonyl)-1H-pyrrol-3-yl)-N-hydroxyacrylamide]
Dose-limiting toxicity [DLT] [1]: fatigue and nausea grade 3
Median expression level, 18S (18S; [2]): 0.872
Median expression level, 18S (18S; [3]): 0.635
Median expression level, 18S (18S; [4]): 0.871
Median expression level, 18S (18S; [5]): 0.682
Median expression level, 18S (18S; [6]): 0.778
Median expression level, 18S (18S; [7]): 0.550
Median expression level, CCDC43 (CCDC43; [2]): 0.917
Median expression level, CCDC43 (CCDC43; [3]): 1.391
Median expression level, CCDC43 (CCDC43; [4]): 0.318
Median expression level, CCDC43 (CCDC43; [5]): 0.329
Median expression level, CCDC43 (CCDC43; [6]): 0.378
Median expression level, CCDC43 (CCDC43; [7]): 0.319
Median expression level, DPP3 (DPP3; [2]): 1.121
Median expression level, DPP3 (DPP3; [3]): 1.457
Median expression level, DPP3 (DPP3; [4]): 0.767
Median expression level, DPP3 (DPP3; [5]): 0.912
Median expression level, DPP3 (DPP3; [6]): 0.267
Median expression level, DPP3 (DPP3; [7]): 0.395
Median expression level, GAPDH (GAPDH; [2]): 1.092
Median expression level, GAPDH (GAPDH; [3]): 1.136
Median expression level, GAPDH (GAPDH; [4]): 1.201
Median expression level, GAPDH (GAPDH; [5]): 1.362
Median expression level, GAPDH (GAPDH; [6]): 1.296
Median expression level, GAPDH (GAPDH; [7]): 1.228
Median expression level, HIST2H4A; HIST2H4B (HIST2H4A; HIST2H4B; [2]): 0.875
Median expression level, HIST2H4A; HIST2H4B (HIST2H4A; HIST2H4B; [3]): 1.530
Median expression level, HIST2H4A; HIST2H4B (HIST2H4A; HIST2H4B; [4]): 2.111
Median expression level, HIST2H4A; HIST2H4B (HIST2H4A; HIST2H4B; [5]): 3.345
Median expression level, HIST2H4A; HIST2H4B (HIST2H4A; HIST2H4B; [6]): 2.042
Median expression level, HIST2H4A; HIST2H4B (HIST2H4A; HIST2H4B; [7]): 2.821
Median expression level, KDELC2 (KDELC2; [2]): 0.909
Median expression level, KDELC2 (KDELC2; [3]): 1.141
Median expression level, KDELC2 (KDELC2; [4]): 0.544
Median expression level, KDELC2 (KDELC2; [5]): 0.509
Median expression level, KDELC2 (KDELC2; [6]): 0.215
Median expression level, KDELC2 (KDELC2; [7]): 0.215
Median expression level, MICALL1 (MICALL1; [2]): 0.981
Median expression level, MICALL1 (MICALL1; [3]): 1.024
Median expression level, MICALL1 (MICALL1; [4]): 0.395
Median expression level, MICALL1 (MICALL1; [5]): 0.407
Median expression level, MICALL1 (MICALL1; [6]): 0.201
Median expression level, MICALL1 (MICALL1; [7]): 0.163
Median expression level, TBP (TBP; [2]): 0.991
Median expression level, TBP (TBP; [3]): 1.305
Median expression level, TBP (TBP; [4]): 0.994
Median expression level, TBP (TBP; [5]): 1.071
Median expression level, TBP (TBP; [6]): 1.052
Median expression level, TBP (TBP; [7]): 1.286
ZFP64 expression in cancer patients (FIG. 4b) (ZFP64; blood cells of HCC and HL patients, 600 or 800 mg daily, Day 1 and Day 5): down-regulates
Median expression level, ZFP64 (ZFP64; [2]): 0.980
Median expression level, ZFP64 (ZFP64; [3]): 1.280
Median expression level, ZFP64 (ZFP64; [4]): 0.412
Median expression level, ZFP64 (ZFP64; [5]): 0.356
Median expression level, ZFP64 (ZFP64; [6]): 0.228
Median expression level, ZFP64 (ZFP64; [7]): 0.188
